Test results from patent publication US9169241B2, “Quinolinyloxyphenylsulfonamides” (Max-Planck-Gesellschaft Zur Forderung der Wissenschaften …, priority 2009, dated 2015).
Read-outs that look alike come from different tables or passages of the source.

Key:
C8161 = assay: Cell vitality assay (ATP assay, CellTiter-Glo); assay type: cell-based; conditions: Homo sapiens; C8161, 72 h; Table IIa; read-out: IC50 ATP-Assay after 72 h C8161
Procedure, shortened: (§1)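 Steps: seed 1000 cells per well; add compound (0.195–12.5 μM, 7 points) or DMSO; incubate 72 h; equilibrate to room temperature ~30 min; add reagent, shake 2 min, stand 10 min; read luminescence. IC50 relative to DMSO-control ATP.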

Hs578T [1] = assay: Cell vitality assay (ATP assay, CellTiter-Glo); assay type: cell-based; conditions: Homo sapiens, Hs-578T, 72 h
Procedure, shortened: as §1

MDA-MB231 = assay: Cell vitality assay (ATP assay, CellTiter-Glo); assay type: cell-based; conditions: Homo sapiens, MDA-MB-231; MDA-MB231, 72 h; Table IIa; read-out: IC50 ATP-Assay after 72 h MDA-MB231
Procedure, shortened: as §1

SF126 = assay: Cell vitality assay (ATP assay, CellTiter-Glo); assay type: cell-based; conditions: Homo sapiens, SF-126; SF126, 72 h; Table IIa; read-out: IC50 ATP-Assay after 72 h SF126
Procedure, shortened: as §1

SF763 = assay: Cell vitality assay (ATP assay, CellTiter-Glo); assay type: cell-based; conditions: SF763, 72 h; Table IIa; read-out: IC50 ATP-Assay after 72 h SF763
Procedure, shortened: as §1

U118 = assay: Cell vitality assay (ATP assay, CellTiter-Glo); assay type: cell-based; conditions: U118, 72 h; Table IIa; read-out: IC50 ATP-Assay after 72 h U118
Procedure, shortened: as §1

U138 = assay: Cell vitality assay (ATP assay, CellTiter-Glo); assay type: cell-based; conditions: U138, 72 h; Table IIa; read-out: IC50 ATP-Assay after 72 h U138
Procedure, shortened: as §1

indicated cell line = assay: Wound healing migration assay (Table IV); assay type: cell-based; conditions: compounds at 12.5, 6.25, 3.125 μM, 48 h-72 h
Procedure, shortened: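 Cells seeded at 150000/24 well, grown to monolayer overnight, scratched with a pipette tip, then treated with compound at 12.5, 6.25 or 3.125 μM versus DMSO. Stopped by crystal violet fixation at 48-72 h once control wounds closed; IC50 taken as 50% wound size between t0 and t48 or t72.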

Hs578T [2] = assay: Matrigel outgrowth assay/branching assay; assay type: cell-based; conditions: Homo sapiens, Hs-578T; HS578T cell line; Table Ib; read-out: Total branching inhibition in Matrigel HS578T
Procedure, shortened: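 Read-out: microscopic images of invasive branching structures at 48 h, 72 h and 96 h. Cells sat on a 3 mg/ml Matrigel layer (set 1 h, 37° C) with compound at 3.125, 1.56 and 0.78 μM or DMSO. A concentration counts as positive only with complete branching inhibition.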

cells = assay: Boyden chamber migration assay (Table VI); assay type: cell-based; conditions: Hs578T cells, 16 h migration
Procedure, shortened: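 20000 cells seeded in the upper compartment in 0% FCS plus 0.1% BSA and left 16 h to migrate through […] membrane toward 10% FCS medium below. Non-migrated cells swabbed off; cells on the filter underside fixed and counted.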

[3] = Hs578T, Table IIa, read-out: IC50 ATP-Assay after 72 h Hs578T
[4] = Homo sapiens, C8161 cells, read-out: IC50 Wound healing Assay C8161
[5] = SF763 cells, read-out: IC50 Wound healing Assay SF763
[6] = HS578T cell line, Table Ib, read-out: IC50 ATP-Assay HS578T after 72 h

Row | IC50 (MDA-MB231) [µM] | IC50 (indicated cell line; [4]) [µM] | IC50 (indicated cell line; [5]) [µM] | IC50 (cells; Homo sapiens, Hs-578T, 16 h) [µM] | melting point [°C] | IC50 (cells) [µM] | SMILES | IC50 (C8161) [µM] | IC50 (Hs578T [1]; [3]) [µM] | IC50 (SF126) [µM] | IC50 (SF763) [µM] | IC50 (U118) [µM] | IC50 (U138) [µM] | IC50 (Hs578T [2]) [µM] | IC50 (Hs578T [1]; [6]) [µM]
1 | ≤ 12.5 | ≤ 12.5 | ≤ 12.5 | ≤ 5 | 113 to 116 | – | COc1cc2c(Oc3ccc(NS(=O)(=O)c4c(Cl)cccc4Cl)cc3F)ccnc2cc1OCCCN1CCN(C)CC1 [Example 32, 2,6-Dichloro-N-(3-fluoro-4-{6-methoxy-7-[3-(4-methyl-piperazin-1-yl)-propoxy]-quinolin-4-yloxy}-phenyl)-benzenesulfonamide] | ≤ 12.5 | ≤ 12.5 | ≤ 12.5 | ≤ 12.5 | ≤ 12.5 | ≤ 12.5 | ≤ 10 | –
2 | 12.5 to 50 | 12.5 to 50 | ≤ 12.5 | ≤ 5 | 168 to 170 | – | COc1cc2c(Oc3ccc(NS(=O)(=O)c4cccc(C)c4)cc3F)ccnc2cc1OCCCN1CCCC(C)C1 (centres unmarked) [Example 70, N-(3-Fluoro-4-{6-methoxy-7-[3-(3-methyl-piperidin-1-yl)-propoxy]-quinolin-4-yloxy}-phenyl)-3-methyl-benzenesulfonamide] | 12.5 to 50 | 12.5 to 50 | ≤ 12.5 | 12.5 to 50 | ≤ 12.5 | ≤ 12.5 | ≤ 10 | –
3 | ≤ 12.5 | ≤ 12.5 | ≤ 12.5 | ≤ 5 | 96 to 98 | – | COc1cc2c(Oc3ccc(NS(=O)(=O)c4ccccc4Cl)cc3F)ccnc2cc1OCCCN1CCN(C)CC1 [Example 29, 2-Chloro-N-(3-fluoro-4-{6-methoxy-7-[3-(4-methyl-piperazin-1-yl)-propoxy]-quinolin-4-yloxy}-phenyl)-benzenesulfonamide] | ≤ 12.5 | 12.5 to 50 | ≤ 12.5 | 12.5 to 50 | ≤ 12.5 | ≤ 12.5 | ≤ 10 | –
4 | 12.5 to 50 | ≤ 12.5 | 12.5 to 50 | 5 to 50 | 134 to 135 | ≤ 5 | COc1cc2c(Oc3ccc(NS(=O)(=O)c4ccccc4C(F)(F)F)cc3F)ccnc2cc1OCC(=O)N(C)C [Example 93, 2-{4-[2-Fluoro-4-(2-trifluoromethyl-benzenesulfonylamino)-phenoxy]-6-methoxy-quinolin-7-yloxy}-N,N-dimethyl-acetamide] | ≤ 12.5 | ≤ 12.5 | ≤ 12.5 | 12.5 to 50 | ≤ 12.5 | 12.5 to 50 | ≤ 10 | –
5 | ≤ 12.5 | 12.5 to 50 | ≤ 12.5 | ≤ 5 | – | – | COc1cc2c(Oc3c(Cl)cc(NS(=O)(=O)c4c(F)cccc4F)cc3Cl)ccnc2cc1OCCCN1CCN(C)CC1 [Example 88, N-(3,5-Dichloro-4-{6-methoxy-7-[3-(4-methyl-piperazin-1-yl)-propoxy]-quinolin-4-yloxy}-phenyl)-2,6-difluoro-benzenesulfonamide] | ≤ 12.5 | ≤ 12.5 | 12.5 to 50 | 12.5 to 50 | ≤ 12.5 | 12.5 to 50 | 10 to 25 | –
6 | 12.5 to 50 | ≤ 12.5 | 12.5 to 50 | ≤ 5 | 174 to 176 | – | COc1cc2c(Oc3ccc(NS(=O)(=O)c4ccc(C)c(F)c4)cc3F)ccnc2cc1OCCCN1CCCC(C)C1 (centres unmarked) [Example 56, 3-Fluoro-N-(3-fluoro-4-{6-methoxy-7-[3-(3-methyl-piperidin-1-yl)-propoxy]-quinolin-4-yloxy}-phenyl)-4-methyl-benzenesulfonamide] | ≤ 12.5 | 12.5 to 50 | ≤ 12.5 | ≤ 12.5 | 12.5 to 50 | ≤ 12.5 | 10 to 25 | 12.5 to 50
7 | ≤ 12.5 | 12.5 to 50 | ≤ 12.5 | ≤ 5 | 146 to 147 | – | COc1cc2c(Oc3ccc(NS(=O)(=O)c4cccc(Oc5ccccc5)c4)cc3F)ccnc2cc1OCCCN1CCCC(C)C1 (centres unmarked) [Example 59, N-(3-Fluoro-4-{6-methoxy-7-[3-(3-methyl-piperidin-1-yl)-propoxy]-quinolin-4-yloxy}-phenyl)-3-phenoxy-benzenesulfonamide] | ≤ 12.5 | ≤ 12.5 | 12.5 to 50 | ≤ 12.5 | 12.5 to 50 | ≤ 12.5 | ≤ 10 | ≤ 12.5
8 | 12.5 to 50 | ≤ 12.5 | ≤ 12.5 | ≤ 5 | 125 to 127 | – | COc1cc2c(Oc3ccc(NS(=O)(=O)c4ccc(F)c(C#N)c4)cc3F)ccnc2cc1OCCCN1CCCC(C)C1 (centres unmarked) [Example 72, 3-Cyano-4-fluoro-N-(3-fluoro-4-{6-methoxy-7-[3-(3-methyl-piperidin-1-yl)-propoxy]-quinolin-4-yloxy}-phenyl)-benzenesulfonamide] | 12.5 to 50 | 12.5 to 50 | 12.5 to 50 | 12.5 to 50 | 12.5 to 50 | 12.5 to 50 | ≤ 10 | –
9 | ≤ 12.5 | 12.5 to 50 | 12.5 to 50 | ≤ 5 | – | – | COc1cc2c(Oc3ccc(NS(=O)(=O)c4ccccc4C(F)(F)F)cc3F)ccnc2cc1OCCCNC1CCOCC1 [Example 95, N-(3-Fluoro-4-{6-methoxy-7-[3-(tetrahydro-pyran-4-ylamino)-propoxy]-quinolin-4-yloxy}-phenyl)-2-trifluoromethyl-benzenesulfonamide] | 12.5 to 50 | 12.5 to 50 | ≤ 12.5 | ≤ 12.5 | ≤ 12.5 | ≤ 12.5 | ≤ 10 | –
10 | ≤ 12.5 | 12.5 to 50 | ≤ 12.5 | ≤ 5 | 100 to 103 | – | COc1cc2c(Oc3ccc(NS(=O)(=O)c4ccc(Cl)s4)cc3F)ccnc2cc1OCCCN1CCCC(C)C1 (centres unmarked) [Example 63, 5-Chloro-thiophene-2-sulfonic acid (3-fluoro-4-{6-methoxy-7-[3-(3-methyl-piperidin-1-yl)-propoxy]-quinolin-4-yloxy}-phenyl)-amide] | ≤ 12.5 | ≤ 12.5 | 12.5 to 50 | ≤ 12.5 | ≤ 12.5 | 12.5 to 50 | ≤ 10 | ≤ 12.5
11 | ≤ 12.5 | 12.5 to 50 | 12.5 to 50 | ≤ 5 | 86 to 90 | – | COc1cc2c(Oc3ccc(NS(=O)(=O)c4ccccc4OC(F)(F)F)cc3F)ccnc2cc1OCCCN1CCN(C)CC1 [Example 25, N-(3-Fluoro-4-{6-methoxy-7-[3-(4-methyl-piperazin-1-yl)-propoxy]-quinolin-4-yloxy}-phenyl)-2-trifluoromethoxy-benzenesulfonamide] | ≤ 12.5 | ≤ 12.5 | ≤ 12.5 | ≤ 12.5 | ≤ 12.5 | ≤ 12.5 | ≤ 10 | –
